Consider 18 compounds from US20140322076A1, “ANTIMICROBIAL COMPOSITION” (priority 2011, published 2014).

Assay type in all cases: cell-based
The test system of assay [1] is Escherichia coli (E. coli - ATCC #10536). In words: High resolution MBC synergy assay in phosphate buffer containing 35% dipropylene glycol (Example 2). To be noted: for ΣFBC: calculated from Ca/MBCA + Cb/MBCB; for MBC of the component alone (MBCA, MBCB): complete kill in 15 seconds, phosphate buffer, 35% DPG. Here is the method: The materials were sourced in the same way as for Example 1. Synergy tests were conducted using standard microtiter plate assays with phosphate buffer containing 35% dipropylene glycol (DPG). […] The MBC plate was inoculated one column at a time with the test microorganism. An aliquot of the inoculated well was transferred at 15 seconds to a plate containing a neutralizing agent (D/E Neutralizing Broth), mixed and held for 5 minutes before being transferred to a growth plate containing trypticase soy broth (TSB). The TSB plate was incubated at 37° C. and read for the presence/absence of growth at 24 hours. […] This microorganism is representative of natural contaminants in many consumer and industrial applications.

Assay [2] concerns Escherichia coli (10536 strain). Briefly: Antimicrobial efficacy, 15 seconds contact suspension assay (Examples 1 and 3). To be noted: for MBC (Minimum Biocidal Concentration): lowest concentration with complete kill after 15 seconds contact, active alone, upper boundary to the MBC; for NMBS: Example 3, gamma-terpineol, concentrations (% w/v) as given per example; for NMBS / NMBS (mean bacterial survival): contact time 15 seconds; for NMBS (mean bacterial survival): phenol and terpineol concentration (% w/v) as given per example, 0 = complete kill, triplicate. Here is the method:
The efficacies of antimicrobial agents can be usefully compared by determining the Minimum Biocidal Concentration (MBC). The MBC is defined as the lowest absolute concentration of the particular active that provides complete kill (zero bacterial growth).
ΣFBC=FBC(component 1)+FBC(component 2)+FBC(component 3)+ . . . etc
such that • ΣFBC≧1 corresponds to additive or antagonistic bactericidal activity • ΣFBC<1 corresponds to synergistic bactericidal activity
Antimicrobial efficacy is tested against a representative pathogenic bacterial organism, Gram negative Escherichia coli. Concentrations of actives are expressed in terms of the percentage weight/volume (% w/v) throughout Example 1.
An overnight culture of Escherichia coli (10536 strain) was prepared in 50 ml total volume of TSB broth, grown for ca. 18 hrs at 37° C. and shaken at 150 rpm. 1 ml of this overnight E. coli culture was transferred to 50 ml of fresh TSB broth and incubated at 37° C. at 150 rpm for ca. 4 hours. This culture was separated into equal volumes and centrifuged at 4000 rpm for 15 minutes, washed with sterile saline (0.85% NaCl), centrifuged once more and re-suspended in saline to give a final concentration of 0.8 OD620 equivalent to about 10^8 cells per millilitre for this particular organism. Here, OD620 indicates the absorbance of a sample in a cuvette of 1.0 cm path length at a wavelength of 620 nm. This bacterial stock was used for assaying against antimicrobial actives (in triplicate).
The following assay describes the testing of 8 materials using 6 dilutions across half of a 96-well micro titre plate (MTP). Using this approach it is possible to assay 16 actives (without replicates) with one full dilution plate, replicating this set up in two halves of the plate columns, 1-6 and 7-12.
1M solutions of the test actives were prepared in dimethylsulphoxide (DMSO).
Aliquots (270 μl) of the materials at 1.11 times the final concentration were dispensed into the wells of the MTP along one column (A1-H1). This MTP was labelled as the “Screening plate”.
In another MTP, labelled as the “Dilution plate”, 270 μl of D/E neutralising solution from DIFCO Composition was added to column 1. The composition of the neutralising solution was as follows: pancreatic digest of casein, 5.0 g/L; Yeast Extract, 2.5 g/L; Dextrose, 10 g/L, sodium thioglycollate, 1.0 g/L, sodium thiosulphate, 6.0 g/L; sodium bisulphite, 2.5 g/L; Polysorbate 80, 5.0 g/L; lecithin 7.0 g/L; bromocresol purple, 0.02 g/L with a pH in the range 7.6±0.2.
270 μl of tryptone diluent solution was added to all the remaining wells of the Dilution MTP (columns 2-6).
Bacterial stock (30 μl) was then added to the prepared 270 μl of the solution of actives in the Screening Plate and mixed, using a multichannel pipette with 8 tips to aspirate and dispense the same volume of bacterial stock in parallel to 8 wells in rows A-H. After a contact time of 15 seconds, the mixtures were quenched by transferring 30 μl volumes of the mixtures into the 270 μl D/E neutralising solution in the prepared dilution plate, using aspiration to mix. After exactly 5 minutes in the D/E neutralising solution, 30 μl volumes were transferred from column 1 to column 2 of the Dilution MTP and mixed, before transferring further 30 μl volumes from column 2 into column 3. This process was repeated serially diluting the bacteria across the plate to column 6.
30 μl volumes from each well in the Dilution MTP were transferred onto pre-labelled segment of Tryptone Soya Agar (TSA) plates starting from the lowest bacterial concentration (highest dilution, column 6) to the highest bacterial concentration (column 1). The TSA plates were allowed to stand for ca. 2 hours so that the 30 μl inocula spots could dry and the plates were then inverted and incubated overnight at 37° C. before enumerating the bacterial colonies at the labelled dilutions to determine the effects of the actives on bacterial growth.

Assay [3] has as its system Escherichia coli (E. coli - ATCC #10536). In words: Automated assessment of efficacy in surfactant base (Example 4). Particulars: for MBC: in 2.85% sodium cocoyl glycinate + 1.85% sodium lauroamphoacetate solution at pH 10; for 15 second bactericidal efficacy (in words): in combination with alpha-terpineol at concentrations lower than their MBC, surfactant formulation. Here is the method: In these examples, the efficacy of combinations of isopropylmethylphenols and terpineol were tested in a surfactant cleansing formulation comprising 2.85% sodium cocoyl glycinate and 1.85% sodium lauroamphoacetate. This corresponds to a 50% in use dilution with water of a typical neat formulation containing 5.7% cocoyl glycinate and 3.7% % sodium lauroamphoacetate during hand washing. Solutions were prepared such that the concentrations of the surfactant components and test actives were 1.1 times the final desired concentration in order to allow for dilution with the bacterial inoculum in the test. The solutions were manually adjusted to pH 10.0 by dropwise addition of sodium hydroxide solution, as measured with a pH meter at ambient temperature. Solutions of the isopropylmethylphenols and/or terpineols were prepared at a maximum of 24 hours before testing. The same terpineol was used as in Example 1.
The efficacy of the combinations of the present invention was determined against the same bacterium as in Example 1, Escherichia coli (E. coli—ATCC #10536), at a concentration of approximately 1×10^8 bacteria per mL.
Tests were conducted using standard microtiter plate assays using an automated liquid handling system. 270 μl of the surfactant test solution was pipetted into each well of the microtitre plate (Nunc F Gamma Irradiated 96F untreated microtitre plates of clear polystyrene) and 30 μl of the bacterial suspension was then added. After exactly 15 seconds of bacterial exposure, a 30 μl volume of bacterial cells was withdrawn and transferred to 270 μl of D/E quench solution. After 5 minutes in the D/E quench, the optical density (OD) was measured for each plate in turn at two specific wavelengths (450 nm and 590 nm). These provide a dual check of antimicrobial activity, as the OD450 reading is specific for the yellow colour of D/E quench when bacterial growth is observed, whereas OD590 is specific for the initial purple colour of the D/E quench which is retained if no bacterial growth is observed. After the time zero OD measurements, plates were then incubated at 37° C. overnight (16 hours) before repeating the OD measurements. Delta OD values were calculated by subtracting […] at time=16 hours.
Bacterial growth is observed as an increase in OD450 and a decrease in OD590. To identify antibacterially efficacious systems (those preventing appreciable bacterial growth after incubation), the following threshold changes in OD readings have been adopted: if (1). OD450 increases by less than 0.2 absorbance unit (AU) on incubation and (2). OD590 decreases by less than 0.35 AU on incubation. Conversely, where OD450 increases by more than 0.1 AU and OD590 decreases by more than 0.1 AU after incubation, corresponding to a colour shift from purple to yellow, the test system allows bacterial growth and is not deemed efficacious. Four replicate measurements in the same plate have been made for each test system. The number of replicate wells showing either bacterial growth or no growth is also readily assessed by eye by following the colour change. Thymol and terpineol were tested both alone and in combination for comparison purposes.
In each case, binary mixtures were assessed in the weight to weight ratio isopropylmethylphenol to alpha terpineol of 1:2.5.

The structures appear in SMILES notation. Where only a bound is given, the exact number is not on record here.

For `CC1=CCC(C(C)(C)O)CC1` (stereo not drawn) [alpha-terpineol], in assay [1], the ΣFBC was 1.00 and the “MBC of the component alone (MBCA, MBCB)” value is 0.6 weight %. Further, the “reduction of the terpineol concentration required for complete kill” value in assay [2] (0.4% alone to […] in combination with […] w/v 4-isopropyl-3-methylphenol or 3-isopropyl-5-methylphenol) is given as 2.7 fold. The MBC in assay [3] is above 0.5 % w/v.

On to `Cc1cc(O)cc(C(C)C)c1` [3-isopropyl-5-methylphenol], for which, in assay [1], the ΣFBC is on record as 1.00 and the “MBC of the component alone (MBCA, MBCB)” value was 0.5 weight %. Besides, the “MBC (Minimum Biocidal Concentration)” value in assay [2] is reported as 0.05 % w/v. In addition, in assay [3], the MBC is above 0.2 % w/v and the “15 second bactericidal efficacy (in words)” value is listed as “complete kill in all 4 replicates”.

Consider `CC(C)=C1CCC(C)(O)CC1` (stereo not shown) [3:2, gamma-terpineol], for which the NMBS in assay [2] came out at 0 log CFU/ml.

`Cc1ccc(C(C)C)c(O)c1` [1:2, thymol]: the “NMBS (mean bacterial survival)” value in assay [2] was 0 log CFU/ml.

For the compound `Cc1ccc(C(C)C)c(O)c1` [1:1, thymol], in assay [2], the “NMBS (mean bacterial survival)” value came to 0 log CFU/ml.

Take `CC(C)=C1CCC(C)(O)CC1` (stereo not shown) [3:4, gamma-terpineol]: in assay [2], the NMBS came out at 7.84 log CFU/ml.

Regarding `CC1=CCC(O)(C(C)C)CC1` (stereo not shown) [1:5, terpineol], in assay [2], the “NMBS (mean bacterial survival)” value is listed as 0 log CFU/ml.

Turning to `Cc1cc(O)ccc1C(C)C` [4-isopropyl-3-methylphenol], in assay [2], the “MBC (Minimum Biocidal Concentration)” value was 0.075 % w/v. For the same compound, in assay [3], the MBC is above 0.2 % w/v and the “15 second bactericidal efficacy (in words)” value is “complete kill in all 4 replicates”.

On to `Cc1cc(O)ccc1C(C)C` [3:5, 4-isopropyl-3-methylphenol], for which the NMBS in assay [2] came to 4.98 log CFU/ml.

For `Cc1cc(O)ccc1C(C)C` [1:12, 4-isopropyl-3-methylphenol], the “NMBS (mean bacterial survival)” value in assay [2] was 0 log CFU/ml.

`Cc1cc(O)cc(C(C)C)c1` [1:8, 3-isopropyl-5-methylphenol]: in assay [2], the “NMBS (mean bacterial survival)” value was determined as 0 log CFU/ml.

Take `Cc1ccc(C(C)C)c(O)c1` [thymol, thymol (2-isopropyl-5-methylphenol)]: the “MBC (Minimum Biocidal Concentration)” value in assay [2] stood at 0.05 % w/v. Besides, the MBC in assay [3] is recorded as above 0.2 % w/v.

Turning to `Cc1cc(O)cc(C(C)C)c1` [1:9, 3-isopropyl-5-methylphenol], the “NMBS (mean bacterial survival)” value in assay [2] stood at 7.6 log CFU/ml.

For the compound `Cc1cc(O)ccc1C(C)C` [3:6, 4-isopropyl-3-methylphenol], in assay [2], the NMBS amounted to 7.78 log CFU/ml.

In the case of `CC1=CCC(O)(C(C)C)CC1` (stereo not shown) [1:6, terpineol], the “NMBS (mean bacterial survival)” value in assay [2] was found to be 7 log CFU/ml.

For the compound `CC(C)=C1CCC(C)(O)CC1` (stereo not shown) [gamma-terpineol], in assay [2], the “MBC (Minimum Biocidal Concentration)” value came to 0.3 % w/v.

Turning to `Cc1cc(O)ccc1C(C)C` [3:7, 4-isopropyl-3-methylphenol], the NMBS in assay [2] is reported as 7.79 log CFU/ml.

Take `Cc1ccc(C(C)C)c(O)c1` [1:3, thymol]: in assay [2], the “NMBS (mean bacterial survival)” value is above 7 log CFU/ml.
